Data on eleven compounds can be found in PubChem BioAssay (NCI).

Test systems include UO-31 renal; RXF 393 renal; CCRF-CEM leukemia; TK-10 renal; COLO 205 colon; A498 renal; UACC-257 melanoma.
Assay in all cases: inhibition of tumour cell growth, NCI panel, 48 h

Each structure is given as a SMILES string.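 Step 1: Grow cells in 96-well plates. Step 2: Expose to compound for 48 hours at 5 concentrations. Step 3: Interpolate endpoints linearly; if unreached, use highest concentration. GI50 marks 50% less growth. TGI: concentration producing complete growth inhibition.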

Take `COc1ccc(-c2nn3c(-c4cc(F)c(Cl)cc4Cl)nnc3s2)cc1`: the GI50 with UO-31 renal is 18.3 µM; in the assay with RXF 393 renal, 28.7 µM; with CCRF-CEM leukemia, 28.8 µM; in the assay with TK-10 renal it was 56.5 µM; in the assay on COLO 205 colon it was 16.5 µM; in the assay with A498 renal it was 43.4 µM. Further, in the assay on UACC-257 melanoma, the GI50 is 32.2 µM. Moreover, the TGI with UO-31 renal was above 100 µM; in the assay on RXF 393 renal, 97.2 µM; with CCRF-CEM leukemia, above 100 µM; with TK-10 renal it was above 100 µM; with COLO 205 colon, 36.8 µM; in the assay on A498 renal, above 100 µM. In the assay on UACC-257 melanoma, the TGI is above 100 µM.

`CCCCCCCCCCCCCCCCN1CC2CCCCC2C1` (stereo unspecified): the GI50 with UO-31 renal was 6 µM; in the assay on RXF 393 renal it was 2.3 µM; with CCRF-CEM leukemia, 2.43 µM; in the assay with TK-10 renal, 11.2 µM; with COLO 205 colon, 4.37 µM; in the assay with A498 renal, 16.2 µM. For the same compound, the GI50 with UACC-257 melanoma was 12.6 µM. The TGI is 19.2 µM in the assay with UO-31 renal; 6.78 µM in the assay with RXF 393 renal; 6.56 µM with CCRF-CEM leukemia; 26.1 µM in the assay on TK-10 renal; 17.7 µM in the assay on COLO 205 colon; 30.6 µM with A498 renal. In the assay on UACC-257 melanoma, this compound gave a TGI of 27 µM.

In the case of `CCc1nccc2c1nc(-c1nonc1N)n2CC`, the GI50 in the assay with UO-31 renal was 9.73 µM; in the assay on RXF 393 renal, 13.6 µM; in the assay with CCRF-CEM leukemia, above 25 µM; in the assay on TK-10 renal, 7.83 µM; in the assay on COLO 205 colon, above 25 µM; in the assay with A498 renal it was 7.1 µM. In the assay with UACC-257 melanoma, the GI50 was above 25 µM. For the same compound, the TGI with UO-31 renal, with RXF 393 renal, with CCRF-CEM leukemia, with TK-10 renal, in the assay on COLO 205 colon and in the assay with A498 renal was above 25 µM throughout. The TGI with UACC-257 melanoma was above 25 µM.

As to `COc1cc(C2CC(c3ccc4c(c3)OCO4)=NN2C=O)cc(OC)c1OC` (stereo unspecified), the GI50 with UO-31 renal was 3.81 µM; with RXF 393 renal it was 4.05 µM; with CCRF-CEM leukemia, 2.48 µM; in the assay on TK-10 renal, above 29.9 µM; with COLO 205 colon, 1.3 µM; with A498 renal, 0.828 µM. Besides, the GI50 in the assay with UACC-257 melanoma was above 20.3 µM. For the same compound, the TGI with UO-31 renal was above 100 µM; in the assay on RXF 393 renal it was 22.2 µM; in the assay on CCRF-CEM leukemia, above 100 µM; in the assay on TK-10 renal, above 100 µM; in the assay on COLO 205 colon, 5.91 µM; in the assay with UACC-257 melanoma it was above 100 µM.

`CCOC(=O)c1cc(NS(=O)(=O)c2ccccc2)cc(C(=O)OCC)c1`: the GI50 with UO-31 renal, in the assay with RXF 393 renal, with CCRF-CEM leukemia, in the assay with TK-10 renal, in the assay with COLO 205 colon and with A498 renal was above 100 µM each time. Besides, the GI50 in the assay with UACC-257 melanoma was above 100 µM. Besides, the TGI with UO-31 renal, in the assay on RXF 393 renal, with CCRF-CEM leukemia, in the assay on TK-10 renal, with COLO 205 colon and in the assay on A498 renal was above 100 µM in each case. In the assay on UACC-257 melanoma, the TGI is above 100 µM.

With `COc1ccc2sc3c(NCCCN(C)C)nc4ccccc4c3c(=O)c2c1`, the GI50 was 1.47 µM in the assay on UO-31 renal; 1.22 µM in the assay on RXF 393 renal; 1.57 µM in the assay with CCRF-CEM leukemia; 1.81 µM in the assay on TK-10 renal; 1.58 µM with COLO 205 colon; 1.38 µM in the assay on A498 renal. The GI50 in the assay with UACC-257 melanoma is 1.81 µM. Moreover, the TGI with UO-31 renal amounted to 2.84 µM; in the assay on RXF 393 renal, 2.53 µM; with CCRF-CEM leukemia, 3.67 µM; in the assay on TK-10 renal, 3.31 µM; in the assay on COLO 205 colon, 3.52 µM; in the assay with A498 renal, 2.78 µM. For the same compound, the TGI in the assay on UACC-257 melanoma came out at 3.49 µM.

On to `O=C(NCCO)Nc1ccc(-c2nc(N3CCOCC3)c3cccn3n2)cc1`, for which the GI50 in the assay on UO-31 renal is 0.0573 µM; with RXF 393 renal it was 0.0686 µM; with CCRF-CEM leukemia, 2.98 µM; in the assay on TK-10 renal it was 0.0935 µM; with COLO 205 colon, 0.117 µM; with A498 renal it was below 0.0373 µM. In the assay on UACC-257 melanoma, the GI50 is 0.149 µM. In addition, the TGI in the assay with UO-31 renal is 1.63 µM; in the assay on RXF 393 renal, 1.39 µM; with CCRF-CEM leukemia it was above 100 µM; in the assay on TK-10 renal it was 2.64 µM; with COLO 205 colon, 9.08 µM; in the assay with A498 renal, 0.125 µM. This compound also came in with a TGI with UACC-257 melanoma of 4.29 µM.

Regarding `O=C(/C=C/c1ccccc1)c1cc(Br)ccc1O`, the TGI in the assay with UO-31 renal came out at 22.9 µM; with RXF 393 renal, 37.4 µM; in the assay with CCRF-CEM leukemia, 33.9 µM; with TK-10 renal, 31.6 µM; with COLO 205 colon, 33.3 µM; in the assay with A498 renal it was 26.8 µM. In the assay on UACC-257 melanoma, this compound yielded a TGI of 27.9 µM.

For `CC#C[C@]1(O)CC[C@H]2[C@@H]3CCC4=CC(=O)CCC4=C3[C@@H](c3ccc4c(c3)OCO4)C[C@@]21C`, the GI50 is 49.6 µM in the assay with UO-31 renal; 43.8 µM in the assay on RXF 393 renal; 103 µM with CCRF-CEM leukemia; 125 µM in the assay with TK-10 renal; 118 µM with COLO 205 colon; 88.3 µM in the assay with A498 renal. In the assay on UACC-257 melanoma, the GI50 was 119 µM. The TGI with UO-31 renal stood at 218 µM; in the assay with RXF 393 renal it was 197 µM; in the assay with CCRF-CEM leukemia, 619 µM; in the assay with TK-10 renal it was 461 µM; with COLO 205 colon, 291 µM; with A498 renal it was 268 µM. The compound also yielded a TGI with UACC-257 melanoma of 410 µM.

In the case of `C=CCOc1cccc(/C=C2\SC(=Nc3ccc(O)cc3)NC2=O)c1`, the GI50 is 0.832 µM with UO-31 renal; 0.302 µM with RXF 393 renal; 0.402 µM with CCRF-CEM leukemia; 4.57 µM in the assay on TK-10 renal; 2.64 µM in the assay on COLO 205 colon; 0.79 µM in the assay on A498 renal. The GI50 in the assay on UACC-257 melanoma was 9.11 µM. For the same compound, the TGI was 2.51 µM with UO-31 renal; 3.77 µM in the assay on RXF 393 renal; above 100 µM with CCRF-CEM leukemia; 18.8 µM with TK-10 renal; 11.1 µM in the assay on COLO 205 colon; 3.77 µM in the assay with A498 renal. The TGI in the assay on UACC-257 melanoma was above 100 µM.

Turning to `Cc1cc(N(CCCl)CCCl)ccc1C=Nc1ccc(-c2csc(Cc3ccccc3)n2)cc1`, the GI50 in the assay on UO-31 renal was 2.61 µM; with RXF 393 renal it was 14.6 µM; with CCRF-CEM leukemia, 3.01 µM; in the assay with TK-10 renal, 19.9 µM; in the assay on COLO 205 colon, 13.1 µM; in the assay on A498 renal, 0.144 µM. Moreover, in the assay on UACC-257 melanoma, the GI50 is 3.36 µM. In addition, the TGI in the assay with UO-31 renal was 26.8 µM; in the assay on RXF 393 renal, 71.3 µM; with CCRF-CEM leukemia, above 86.3 µM; in the assay with TK-10 renal, 62.5 µM; with COLO 205 colon, 34.1 µM; with A498 renal, 1.13 µM. This compound yielded a TGI in the assay on UACC-257 melanoma of 29.3 µM.
